Test results taken from BindingDB's records for doi:10.1016/s0960-894x(98)00091-2 (Eli Lilly, 1999).

Molecular target: NMDA receptor (Rattus norvegicus)
Experiment: Binding affinity against Ionotropic glutamate receptor using [3H]- CGS-19755 displacement from rat forebrain preparations

`N[C@@H](C[C@H](CCC(c1ccccc1)c1ccccc1)C(=O)O)C(=O)O` [(2S,4S)-2-Amino-4-(3,3-diphenyl-propyl)-pentanedioic acid] was tested, and the IC50 was 13.2 µM.
